Measured values reported in the NIST ThermoML archive (doi:10.1016/j.jct.2004.11.015).
Numbers after ± are expanded uncertainties.

Experiments:
[1] = Liquid; for mass density: 101.33 kPa
[2] = refractive index (Na D-line) (dimensionless); details: 101.33 kPa, Liquid, Abbe refractometer

Structure (SMILES) | mass density ([1]; 298.15 K) [kg/m3] | refractive index ([2]; 298.15 K) | also measured
CC(=O)N(C)C [N,N-dimethylethanamide] | 936.3 ± 1.5 | 1.4356 ± 0.0007 | vapor or sublimation pressure ([1]; 415.35 K): 94.7 ± 9.6 kPa
ClCC1CO1 (centres undefined) [1-chloro-2,3-epoxypropane] | 1174.6 ± 2 | 1.4358 ± 0.0007 | vapor or sublimation pressure ([1]; 389.15 K): 94.7 ± 9.6 kPa
CC(=O)c1ccccc1 [acetophenone] | – | – | mass density ([1]; 293.15 K): 1028.1 ± 1.3 kg/m3; vapor or sublimation pressure ([1]; 472.25 K): 94.7 ± 9.6 kPa; refractive index ([2]; 293.15 K): 1.5342 ± 0.0007
C=CC#N [acrylonitrile] | 800.4 ± 1.3 | 1.3888 ± 0.0007 | vapor or sublimation pressure ([1]; 348.85 K): 94.7 ± 9.6 kPa
CC(=O)CC(C)C [4-methylpentan-2-one] | 796.3 ± 1.2 | 1.3936 ± 0.0007 | vapor or sublimation pressure ([1]; 387.15 K): 94.7 ± 9.6 kPa
CCc1ccccc1 [ethylbenzene] | 862.5 ± 1.1 | 1.4932 ± 0.0007 | vapor or sublimation pressure ([1]; 407.05 K): 94.7 ± 9.6 kPa
Cc1ccccn1 [2-methylpyridine] | 939.8 ± 1.5 | 1.4984 ± 0.0007 | vapor or sublimation pressure ([1]; 398.05 K): 94.7 ± 9.6 kPa
CCCCCO [pentan-1-ol] | 815 ± 1 | 1.4085 ± 0.0007 | vapor or sublimation pressure ([1]; 400.15 K): 94.7 ± 9.6 kPa
